Tests used:
CDK2/Cyclin A = CDK2/Cyclin A (Homo sapiens, UniProt P24941); assay: Inhibition of CDK2/Cyclin A Retinoblastoma Kinase Activity; type: biochemical; settings: for inhibition at 0.05 µM: read-out: % inhibition of CDK2 (@ 0.05 μM), compound at 0.05 μM; for Ki: apparent Ki, CDK2/proteolyzed cyclin A, Rb fragment substrate, 25 μM ATP
Method: Cyclin-dependent kinase activity was measured by quantifying the enzyme-catalyzed, time-dependent incorporation of radioactive phosphate from [^32P]ATP or [^33P]ATP into a protein substrate. Unless noted otherwise, assays were performed in 96-well plates in a total volume of 50 μL, in the presence of 10 mM HEPES (N-[2-hydroxyethyl]piperazine-N′-[2-ethanesulfonic acid]) (pH 7.4), 10 mM MgCl2, 25 μM adenosine triphosphate (ATP), 1 mg/mL ovalbumin, 5 μg/mL leupeptin, 1 mM dithiothreitol, 10 mM β-glycerophosphate, 0.1 mM sodium vanadate, 1 mM sodium fluoride, 2.5 mM ethylene glycol-bis(β-aminoethyl ether)-N,N,N′N′-tetraacetic acid (EGTA), 2% (v/v) dimethylsulfoxide, and 0.03-0.4 μCi [^32/33P]ATP per reaction. Reactions were initiated with enzyme, incubated at 30° C., and terminated after 20 minutes by the addition of ethylenediaminetetraacetic acid (EDTA) to 250 mM. The phosphorylated substrate was then captured on a nitrocellulose or phosphocellulose membrane using a 96-well filtration manifold, and unincorporated radioactivity was removed by repeated washing with 0.85% phosphoric acid. Radioactivity was quantified by exposing the dried membranes to a phosphorimager.
Inhibition was measured relative to control wells that contained all reaction components including 2% (v/v) DMSO but no compound, after subtraction of background radioactivity measured in the absence of enzyme. Apparent Ki values of discrete compounds were measured by assaying enzyme activity in the presence of different inhibitor compound concentrations and subtracting the background radioactivity measured in the absence of enzyme. The kinetic parameters (kcat, Km for ATP) were measured for each enzyme under the usual assay conditions by determining the dependence of initial rates on ATP concentration. Inhibition data were fit to an equation for competitive inhibition using Kaleidagraph (Synergy Software), or were fit to an equation for competitive tight-binding inhibition using the software KineTic (BioKin, Ltd.).
Inhibition of CDK2/Cyclin A Retinoblastoma Kinase Activity:
CDK2 was purified using published methodology (Rosenblatt et al., “Purification and Crystallization of Human Cyclin-dependent Kinase 2,” J. Mol. Biol., vol. 230, 1993, pp. 1317-1319) from insect cells that had been infected with a baculovirus expression vector. […] A complex of CDK2 and proteolyzed cyclin A was prepared and purified by gel filtration. The substrate for this assay was the same Rb substrate fragment used for the CDK4 assays, and the methodology of the CDK2/delta cyclin A and the CDK4/delta cyclin D3 assays was essentially the same, except that CDK2 was present at 10 nM or 19 nM. The duration of the assay was 60 or 75 minutes, during which the time-dependence of product formation was linear and initial rate conditions were met. And, the percent inhibitions of the compounds of Example O through Example R were calculated as described above and shown in Table 2.

HCT-116 cell line = assay: Inhibition of cell growth, tetrazolium salt (MTT) assay; type: cell-based; settings: Homo sapiens, MTT; for inhibition at 0.175 µM: HCT-116, HCT-116 cells, compound at 0.175 uM; for IC50: HCT-116, 120 h, first HCT-116 column (c4), three to five days, read-out: HCT-116 IC50
Summary of the method: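 McCoy's 5A cultures; 4 h pre-incubation; compound dilutions in 0.5% v/v DMSO; 3–5 d, 37° C, 5% CO2; MTT 0.2 mg/mL final, 4 h; formazan dissolved in DMSO, A540; vs 0.5% DMSO vehicle.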

inhibition at 0.05 µM (CDK2/Cyclin A) | Ki (CDK2/Cyclin A) | IC50 (HCT-116 cell line) | SMILES | inhibition at 0.175 µM (HCT-116 cell line)
82% | – | – | CN(C)CCCCNCCCS(=O)(=O)N1CCC(Nc2nc(N)c(C(=O)c3c(F)cccc3F)s2)CC1 [Example V154] | 15%
87% | – | – | Nc1nc(NC2CCN(S(=O)(=O)CCCNCCc3ncn[nH]3)CC2)sc1C(=O)c1c(F)cccc1F [Example V150] | 18%
81% | – | – | Cc1cnc(CNCCCS(=O)(=O)N2CCC(Nc3nc(N)c(C(=O)c4c(F)cccc4F)s3)CC2)cn1 [Example V43] | 17%
87% | – | – | COCCNCCCS(=O)(=O)N1CCC(Nc2nc(N)c(C(=O)c3c(F)cccc3F)s2)CC1 [Example V67] | 21%
87% | – | – | CSCCCNCCCS(=O)(=O)N1CCC(Nc2nc(N)c(C(=O)c3c(F)cccc3F)s2)CC1 [Example V127] | 13%
– | 3.6 nM | 60 nM | Cc1ccccc1CNCCCS(=O)(=O)N1CCC(Nc2nc(N)c(C(=O)c3c(F)cccc3F)s2)CC1 [Example V184, (4-Amino-2-{[1-({3-[(2-methylbenzyl)amino]propyl}sulfonyl)-4-piperidinyl]amino}-1,3-thiazol-5-yl)(2,6-difluorophenyl)methanone.] | –
85% | – | – | Cc1ccnc(NCCCS(=O)(=O)N2CCC(Nc3nc(N)c(C(=O)c4c(F)cccc4F)s3)CC2)c1 [Example V109] | 0%
79% | – | – | Nc1nc(NC2CCN(S(=O)(=O)CCCNCCCCO)CC2)sc1C(=O)c1c(F)cccc1F [Example V90] | 21%
79% | – | – | CC(O)CNCCCS(=O)(=O)N1CCC(Nc2nc(N)c(C(=O)c3c(F)cccc3F)s2)CC1 (stereo not drawn) [Example V42] | 4%
85% | – | – | Cc1c(CNCCCS(=O)(=O)N2CCC(Nc3nc(N)c(C(=O)c4c(F)cccc4F)s3)CC2)cnn1C [Example V173] | 0%

Second part, the compound before the results:

SMILES | inhibition at 0.05 µM (CDK2/Cyclin A) | Ki (CDK2/Cyclin A) | IC50 (HCT-116 cell line) | inhibition at 0.175 µM (HCT-116 cell line)
CC(NCCCS(=O)(=O)N1CCC(Nc2nc(N)c(C(=O)c3c(F)cccc3F)s2)CC1)c1ccccc1 (stereo not drawn) [Example V53] | 91% | – | – | 75%
CCCCN(CC#N)CCCS(=O)(=O)N1CCC(Nc2nc(N)c(C(=O)c3c(F)cccc3F)s2)CC1 [Example V119] | 75% | – | – | 0%
Nc1nc(NC2CCN(S(=O)(=O)CCCNCC3COCCO3)CC2)sc1C(=O)c1c(F)cccc1F (stereo not drawn) [Example V163] | 83% | – | – | 2%
C=C(C)CN(C)CCCS(=O)(=O)N1CCC(Nc2nc(N)c(C(=O)c3c(F)cccc3F)s2)CC1 [Example V137] | 76% | – | – | 78%
Nc1nc(NC2CCN(S(=O)(=O)CCCN[C@H]3CC[C@H](O)CC3)CC2)sc1C(=O)c1c(F)cccc1F [Example V39] | 84% | – | – | 0%
CN(C)CCCS(=O)(=O)N1CCC(Nc2nc(N)c(C(=O)c3c(F)cccc3F)s2)CC1 [Example V147] | 78% | – | – | 23%
Nc1nc(NC2CCN(S(=O)(=O)CCCN3CCCC3)CC2)sc1C(=O)c1c(F)cccc1F [Example V64] | 17% | – | – | 0%
CN(C)CCCN(C)CCCS(=O)(=O)N1CCC(Nc2nc(N)c(C(=O)c3c(F)cccc3F)s2)CC1 [Example V32] | 78% | – | – | 11%
NC(=O)C1CCN(CCCS(=O)(=O)N2CCC(Nc3nc(N)c(C(=O)c4c(F)cccc4F)s3)CC2)CC1 [Example V45] | 83% | – | – | 25%
CC1(C)CCCN(CCCS(=O)(=O)N2CCC(Nc3nc(N)c(C(=O)c4c(F)cccc4F)s3)CC2)C1 [Example K60, {4-Amino-2-[(1-{[3-(3,3-dimethylpiperidin-1-yl)propyl]sulfonyl}piperidin-4-yl)amino]-1,3-thiazol-5-yl}(2,6-difluorophenyl)methanone] | – | 13 nM | 120 nM | –
Nc1nc(NC2CCN(S(=O)(=O)CCCNC3CCSCC3)CC2)sc1C(=O)c1c(F)cccc1F [Example V161] | 88% | – | – | 2%

From US20050101595A1, “N-containing cycloalkyl-substituted amino-thiazole derivatives and pharmaceutical compositions for inhibiting cell proliferation and methods for their use” (PFIZER INC., priority 2003, published 2005)
